The subject of data set [1] is Monographella nivalis (Microdochium nivale). Kind of data set: Monographella nivalis (Microdochium nivale)/Liquid Culture (Foot Rot Cereals). It is filed as cell-based. The note with it: 200 ppm, liquid culture, compared to untreated control, 4-5 days after application, read-out: control of Monographella nivalis.
The subject of data set [2] is Botryotinia fuckeliana (Botrytis cinerea). Kind of data set: Botryotinia fuckeliana (Botrytis cinerea)/Liquid Culture (Gray Mould). It is filed as cell-based. Particulars: 200 ppm, liquid culture, compared to untreated control, 3-4 days after application, read-out: control of Botryotinia fuckeliana.
For data set [3], the system named is Fusarium culmorum. Nature of the data set: whole plant or invertebrate. It is filed as in vivo. The note with it: in Triticum aestivum, read-out: control of Fusarium culmorum.
Data set [4] has as its system Magnaporthe grisea (Pyricularia oryzae). Kind of data set: microbe, parasite or virus in culture. The note with it: read-out: control of Magnaporthe grisea. It is filed as cell-based.
Data set [5] deals with Glomerella lagenarium (Colletotrichum lagenarium). Kind of data set: Glomerella lagenarium (Colletotrichum lagenarium)/Liquid Culture (Anthracnose). The class given is cell-based. The note with it: Colletotrichum orbiculare; 200 ppm; liquid culture, compared to untreated control, 3-4 days after application; read-out: control of Glomerella lagenarium.
Data set [6] relates to Sclerotinia sclerotiorum. Kind of data set: Sclerotinia sclerotiorum/Liquid Culture (Cottony Rot). The note with it: read-out: control of Sclerotinia sclerotiorum.
Protocol: Mycelia fragments of a newly grown liquid culture of the fungus are directly mixed into nutrient broth (Vogels broth). After placing a (DMSO) solution of test compound into a microtiter plate (96-well format) the nutrient broth containing the fungal material is added. The test plates are incubated at 24° C. and the inhibition of growth is determined photometrically 3-4 days after application.
Data set [7] relates to Fusarium culmorum. Kind of data set: microbe, parasite or virus in culture. The note with it: read-out: control of Fusarium culmorum. It is filed as cell-based.

Where only a bound is given, the exact number is not on record here.

For the molecule `C[C@](Cc1ccccc1)(CC(F)(F)F)C(=O)Nc1cnc2c(F)cccc2c1` (single isomer, unassigned) [Compound F-23], the inhibition of growth at 200 ppm in data set [1], in data set [2], in data set [4], in data set [5] and in data set [7] was not below 80% each time. Further, in data set [3], the pest or weed control at 200 ppm was not below 80%. For the same molecule, the inhibition of growth at 20 ppm in data set [6] was not below 80%.

Regarding `Cc1nc2c(F)cccc2cc1NC(=O)C(C)(Cc1ccc(F)cc1)CC(F)(F)F` (stereo not shown) [Compound E-16, 4,4,4-trifluoro-N-(8-fluoro-2-methyl-3-quinolyl)-2-[(4-fluorophenyl)methyl]-2-methyl-butanamide], the inhibition of growth at 200 ppm in data set [2], in data set [4], in data set [5] and in data set [7] was not below 80% each time. The inhibition of growth at 20 ppm in data set [6] was not below 80%.

On to `CC(Cc1cccc(F)c1)(CC(F)(F)F)C(=O)Nc1cnc2c(F)cccc2c1` (stereo not shown) [Compound E-22, 4,4,4-trifluoro-2-[(3-fluorophenyl)methyl]-N-(8-fluoro-3-quinolyl)-2-methyl-butanamide], for which the inhibition of growth at 200 ppm in data set [1], in data set [2], in data set [4], in data set [5] and in data set [7] was not below 80% in each case. For the same molecule, the inhibition of growth at 20 ppm in data set [6] is not below 80%.

As for `C/C=C\CC(C)(Cc1ccccc1)C(=O)Nc1cnc2c(F)cccc2c1` (stereo not shown) [Compound E-28, (Z)-2-benzyl-N-(8-fluoro-3-quinolyl)-2-methyl-hex-4-enamide], the melting point was in the range of 128 to 130 °C. For the same molecule, the inhibition of growth at 200 ppm in data set [1] was not below 80%. Besides, the inhibition of growth at 200 ppm in data set [2] is not below 80%. In addition, in data set [3], the pest or weed control at 200 ppm was not below 80%. Besides, the inhibition of growth at 200 ppm in data set [4] was not below 80%. Further, in data set [5], the inhibition of growth at 200 ppm is not below 80%. The inhibition of growth at 200 ppm in data set [7] was not below 80%.

Take `COC(Cc1ccccc1)(CC(C)C)C(=O)Nc1cc2cccc(F)c2nc1C` (stereo not shown) [Compound E-37, 2-benzyl-N-(8-fluoro-2-methyl-3-quinolyl)-2-methoxy-4-methyl-pentanamide]: the melting point lay within 92 to 94 °C. Besides, the inhibition of growth at 200 ppm in data set [1] was not below 80%. Besides, the inhibition of growth at 200 ppm in data set [2] was not below 80%. Further, the pest or weed control at 200 ppm in data set [3] is not below 80%. The inhibition of growth at 200 ppm in data set [4] is not below 80%. Besides, the inhibition of growth at 200 ppm in data set [5] was not below 80%. Besides, the inhibition of growth at 200 ppm in data set [7] is not below 80%.

`COC(C)(Cc1ccccc1)C(=O)Nc1cnc2c(F)cccc2c1` (stereo not shown) [Compound E-43, N-(8-fluoro-3-quinolyl)-2-methoxy-2-methyl-3-phenyl-propanamide] showed a melting point of 107 to 109 °C. The inhibition of growth at 200 ppm in data set [1] was not below 80%. Also, in data set [2], the inhibition of growth at 200 ppm is not below 80%. In data set [3], the pest or weed control at 200 ppm was not below 80%. The inhibition of growth at 200 ppm in data set [4] is not below 80%. The inhibition of growth at 200 ppm in data set [5] was not below 80%. Further, in data set [7], the inhibition of growth at 200 ppm is not below 80%.

Consider `CC(Cc1ccccc1)(CC(F)(F)Cl)C(=O)Nc1cnc2c(F)cccc2c1` (stereo not shown) [Compound E-56, 2-benzyl-4-chloro-4,4-difluoro-N-(8-fluoro-3-quinolyl)-2-methyl-butanamide], for which the inhibition of growth at 200 ppm in data set [1], in data set [2], in data set [4], in data set [5] and in data set [7] was not below 80% each time. In data set [3], the pest or weed control at 200 ppm is not below 80%. Moreover, the inhibition of growth at 20 ppm in data set [6] is not below 80%.

`O=C(Nc1cnc2c(F)cccc2c1)C(Cc1ccccc1)CC(F)(F)Cl` (stereo not shown) [Compound E-58, 2-benzyl-4-chloro-4,4-difluoro-N-(8-fluoro-3-quinolyl)butanamide] gave a melting point of 65 to 70 °C. In addition, in data set [1], the inhibition of growth at 200 ppm is not below 80%. In data set [2], the inhibition of growth at 200 ppm is not below 80%. In data set [3], the pest or weed control at 200 ppm is not below 80%. Further, the inhibition of growth at 200 ppm in data set [4] is not below 80%. Besides, in data set [5], the inhibition of growth at 200 ppm is not below 80%. In addition, the inhibition of growth at 200 ppm in data set [7] was not below 80%.

Consider `Cc1cccc2cc(NC(=O)C(C)(Cc3ccccc3)CC(F)(F)F)cnc12` (stereo not shown) [Compound E-59, 2-benzyl-4,4,4-trifluoro-2-methyl-N-(8-methyl-3-quinolyl)butanamide], for which the melting point is 123 to 125 °C. The inhibition of growth at 200 ppm in data set [1] is not below 80%. In addition, the inhibition of growth at 200 ppm in data set [2] is not below 80%. The pest or weed control at 200 ppm in data set [3] is not below 80%. Moreover, the inhibition of growth at 200 ppm in data set [4] is not below 80%. For the same molecule, in data set [5], the inhibition of growth at 200 ppm was not below 80%. In addition, the inhibition of growth at 200 ppm in data set [7] was not below 80%.

Molecule `CC(Cc1ccccc1)(CC(F)(F)F)C(=O)Nc1cnc2c(F)c(F)ccc2c1` (stereo not shown) [Compound E-60, 2-benzyl-N-(7,8-difluoro-3-quinolyl)-4,4,4-trifluoro-2-methyl-butanamide] displayed a melting point of 183 to 186 °C. The inhibition of growth at 200 ppm in data set [1] is not below 80%. For the same molecule, the inhibition of growth at 200 ppm in data set [2] is not below 80%. Besides, the pest or weed control at 200 ppm in data set [3] was not below 80%. Moreover, in data set [4], the inhibition of growth at 200 ppm was not below 80%. Also, in data set [5], the inhibition of growth at 200 ppm was not below 80%. Moreover, the inhibition of growth at 200 ppm in data set [7] is not below 80%.

For the molecule `CC(Cc1ccccc1)(CC(F)(F)F)C(=O)Nc1cnc2ccccc2c1` (stereo not shown) [Compound E-81, 2-benzyl-4,4,4-trifluoro-2-methyl-N-(3-quinolyl)butanamide], the inhibition of growth at 200 ppm in data set [2], in data set [4], in data set [5] and in data set [7] was not below 80% throughout. For the same molecule, the pest or weed control at 200 ppm in data set [3] was not below 80%. In data set [6], the inhibition of growth at 20 ppm is not below 80%.

For `Cc1c(NC(=O)[C@](C)(Cc2ccccc2)CC(C)C)cnc2c(F)cccc12` [Compound F-3, (2S)-2-benzyl-N-(8-fluoro-4-methyl-3-quinolyl)-2,4-dimethyl-pentanamide], the inhibition of growth at 200 ppm in data set [1], in data set [2], in data set [4], in data set [5] and in data set [7] was not below 80% in each case. Moreover, in data set [6], the inhibition of growth at 20 ppm is not below 80%.

For the molecule `C=C(C)C[C@@](C)(Cc1ccccc1)C(=O)Nc1cnc2c(F)cccc2c1C` [Compound F-5, (2S)-2-benzyl-N-(8-fluoro-4-methyl-3-quinolyl)-2,4-dimethyl-pent-4-enamide], the inhibition of growth at 200 ppm in data set [1], in data set [2], in data set [4], in data set [5] and in data set [7] was not below 80% throughout. Moreover, in data set [6], the inhibition of growth at 20 ppm is not below 80%.

With `C[C@](Cc1ccccc1)(CC(F)(F)F)C(=O)Nc1cnc2c(F)c(F)ccc2c1` [Compound F-15, (2S)-2-benzyl-N-(7,8-difluoro-3-quinolyl)-4,4,4-trifluoro-2-methyl-butanamide], the inhibition of growth at 200 ppm in data set [1], in data set [2], in data set [4], in data set [5] and in data set [7] was not below 80% each time. Further, in data set [6], the inhibition of growth at 20 ppm was not below 80%.

The values above are taken from patent publication US10952436B2, “Microbiocidal quinoline (thio)carboxamide derivatives” (SYNGENTA PARTICIPATIONS AG, priority 2017, dated 2021).
